Results as given in ChEMBL document CHEMBL1122843, “Opioid receptor interactions and conformations of the 6 alpha and 6 beta epimers of oxymorphamine. Solid-state conformation of 6 alpha-oxymorphamine” (J Med Chem, 1985).
pIC50: −log10 of the molar value.

Tests used:
Mu-type opioid receptor = Mu-type opioid receptor (Rattus norvegicus, UniProt P33535); assay: Compound was evaluated for binding affinity against Opioid receptor mu 1 in rat brain membranes using [125I]-Tyr-D-Ala-Gly-NMePhe-Met; assay type: cell membranes; conditions: read-out: I50
Sequence of Mu-type opioid receptor (P33535 whole entry): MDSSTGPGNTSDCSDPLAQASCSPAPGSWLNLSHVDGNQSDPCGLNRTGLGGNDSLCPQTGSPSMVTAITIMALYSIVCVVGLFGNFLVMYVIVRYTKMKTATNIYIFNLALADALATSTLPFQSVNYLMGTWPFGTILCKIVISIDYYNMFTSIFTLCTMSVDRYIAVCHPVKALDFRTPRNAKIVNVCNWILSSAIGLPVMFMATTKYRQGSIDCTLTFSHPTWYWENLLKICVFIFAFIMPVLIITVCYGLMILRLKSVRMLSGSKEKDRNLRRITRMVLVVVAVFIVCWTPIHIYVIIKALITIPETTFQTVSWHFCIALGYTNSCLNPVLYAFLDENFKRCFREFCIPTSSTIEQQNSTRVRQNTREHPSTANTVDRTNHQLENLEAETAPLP

[1] = biological target: Delta-type opioid receptor (Rattus norvegicus, UniProt P33533); assay: Compound was evaluated for binding affinity against Opioid receptor delta 1 in rat brain membranes using [125I]-D-Ala2-Leu5-enkephalin; assay type: cell membranes; conditions: read-out: I50
Sequence of Delta-type opioid receptor (P33533 whole entry): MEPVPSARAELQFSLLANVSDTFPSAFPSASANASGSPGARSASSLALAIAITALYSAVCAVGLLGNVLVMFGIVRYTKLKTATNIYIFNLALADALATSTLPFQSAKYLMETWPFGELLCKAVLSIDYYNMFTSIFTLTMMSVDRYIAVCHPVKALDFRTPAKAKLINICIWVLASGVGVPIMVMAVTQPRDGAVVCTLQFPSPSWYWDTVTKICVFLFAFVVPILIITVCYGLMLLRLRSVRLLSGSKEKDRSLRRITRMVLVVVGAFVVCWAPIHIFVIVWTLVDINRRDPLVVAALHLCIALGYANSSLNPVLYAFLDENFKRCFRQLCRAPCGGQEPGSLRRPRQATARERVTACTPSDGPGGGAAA

SMILES	pIC50 (Mu-type opioid receptor)	pIC50 [1]
CN1CC[C@]23c4c5ccc(O)c4O[C@H]2[C@@H](N)CC[C@@]3(O)[C@H]1C5	7.89	6.60
CN1CC[C@]23c4c5ccc(O)c4O[C@H]2[C@H](N)CC[C@@]3(O)[C@H]1C5	8.05	6.96
